According to US20210238172:
Where two headings read alike, the source gives them in different places.

Conditions: amide bond, HATU/DIEA, NMP, 2 steps

| Substance | ring closure, yield after HPLC (21-membered ring, 92.4 mM, 80.0 °C) | ring closure, yield after HPLC (22-membered ring, 68.9 mM, 140.0 °C) |
| --- | --- | --- |
| 8-Ethyl-10,18-dimethyl-7,20-dioxo-6,7,8,11,14,15,20,21,28,29,30,31-dodecahydrobenzo[4,5]imidazo[1,2-a]benzo[4,5]imidazo[2,1-p]dipyrazolo[5,1-e:4′,3′-l][1,3,6,15,17]pentaazacyclohenicosine-3,24-dicarboxamide | 1.7% | – |
| 8-ethyl-10,18,30-trimethyl-7,20-dioxo-7,8,11,12,13,14,15,20,21,28,29,30,31,32-tetradecahydro-benzo[4,5]imidazo[2,1-b]benzo[4,5]imidazo[1,2-i]dipyrazolo[5,1-m:4′,3′-t][1,3,6,9,11,14]hexaazacyclodocosine-3,24-dicarboxamide | – | 4.56% |
